For 4 compounds, EC50 results are on record in US20180022780A1, “STABILIZATION ADRENOMEDULLIN DERIVATIVES AND USE THEREOF” (priority 2014, published 2018).

Bridge positions count the residues as written; N and C are the ends. Square brackets hold non-standard residues; d marks the D form. Peptide text beside a SMILES is read from it. * marks the point of attachment. Palmitoyl = CCCCCCCCCCCCCCCC(=O)*; Orn = NCCC[C@H](N)C(=O)O; Dab = NCC[C@H](N)C(=O)O

The target in this experiment is T1, CLR fused to EYFP and RAMP2 fused to ECFP (Homo sapiens, UniProt O60895+Q16602).
T1 construct: EYFP; ECFP; expressed in transfected cells; host or cells: HEK-293 cells, transient co-transfection
T1 sequence (Q16602 23-461): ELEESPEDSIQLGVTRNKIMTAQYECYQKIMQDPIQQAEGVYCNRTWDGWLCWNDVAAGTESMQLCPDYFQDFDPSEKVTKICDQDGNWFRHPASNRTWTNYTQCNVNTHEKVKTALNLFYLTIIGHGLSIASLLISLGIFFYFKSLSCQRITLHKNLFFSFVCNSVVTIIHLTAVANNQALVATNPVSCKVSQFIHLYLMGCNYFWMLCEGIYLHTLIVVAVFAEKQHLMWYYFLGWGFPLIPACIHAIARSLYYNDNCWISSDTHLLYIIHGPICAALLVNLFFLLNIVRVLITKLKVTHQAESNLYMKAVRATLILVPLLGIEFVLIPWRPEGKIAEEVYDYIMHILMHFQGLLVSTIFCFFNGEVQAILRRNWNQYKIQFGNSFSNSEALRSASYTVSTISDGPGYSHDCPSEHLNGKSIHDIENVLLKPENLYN
T1 sequence (O60895 43-175): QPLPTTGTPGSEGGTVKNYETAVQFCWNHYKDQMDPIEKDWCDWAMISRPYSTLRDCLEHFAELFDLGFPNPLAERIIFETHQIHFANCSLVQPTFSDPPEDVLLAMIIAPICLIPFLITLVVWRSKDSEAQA
Kind of experiment: cAMP assay (CRE luciferase reporter, HEK-293 cells transiently co-transfected with CLR and RAMP2). It counts as cell-based. As to conditions: Table 2, cAMP assay; HEK-293, CLR/RAMP2, CRE luciferase, 3 h stimulation, normalized to [G^14]ADM(14-52). The procedure: HEK-293 cells (human embryonic kidney cells) were cultured in Ham's F-12/DMEM (1/1; v/v) containing 15% FCS under humidified atmosphere at 37° C. and 5% CO2 in 75 cm^2 cell culture flasks.
Cells were cultured in 75 cm^2 flasks to 70-80% confluency. 45 μl Metafectene® Pro was diluted in 900 μl Ham's F-12/DMEM (1/1; v/v) and incubated for 20 min at room temperature. 9000 ng plasmid containing DNA of CLR fused to EYFP and 3000 ng plasmid containing DNA of RAMP2 fused to ECFP were dissolved in 900 μl Ham's F-12/DMEM (1/1; v/v). The plasmid solution was mixed with the Metafectene® Pro solution and incubated for 25 min at room temperature. Medium was removed from the cells and replaced by 6 ml Ham's F-12/DMEM (1/1; v/v) containing 15% FCS. After addition of transfection solution the cells were incubated for 3 h under humidified atmosphere at 37° C. and 5% CO2.
For the second transfection 45 μl Metafectene® Pro was diluted in 900 μl Ham's F-12/DMEM (1/1; v/v) and incubated for 20 min at room temperature. 12000 ng of pGL4.29[luc2P/CRE/Hygro] plasmid containing DNA for the luciferase reporter gene luc2P (with CRE promotor region) were dissolved in 900 μl Ham's F-12/DMEM (1/1; v/v). The plasmid solution was mixed with the Metafectene® Pro solution and incubated for 25 min at room temperature. Medium was removed from the cells and replaced by 6 ml Ham's F-12/DMEM (1/1; v/v) containing 15% FCS. After addition of transfection solution the cells were incubated under humidified atmosphere at 37° C. and 5% CO2 over night.
For the coating of 96-well-plates 50 μl of a Poly-D-Lysine solution (1 ml stock solution of Poly-D-Lysin-hydrobromid/10 ml DPBS) were pipetted in each well and incubated for 40 min. After removal of the Poly-D-Lysine each well was washed with 50 μl DPBS. Transiently transfected cells were detached from the cell culture flask by removal of the medium, twofold washing with 5 m1 DPBS and resuspending in 13 ml Ham's F-12/DMEM (1/1; v/v) containing 15% FCS. 90000 to 120000 cells in 150 μl Ham's F-12/DMEM (1/1; v/v) containing 15% FCS were seeded per well and the plates were incubated under humidified atmosphere at 37° C. and 5% CO2 over night.
For each ligand a serial dilution giving eight different concentrations was prepared using Ham's F-12/DMEM (1/1; v/v). Before stimulation the medium on the cells was replaced by 100 μl Ham's F-12/DMEM (1/1; v/v) and the plates were incubated for 1 h under humidified atmosphere at 37° C. and 5% CO2. For stimulation the medium was removed again and the cells were incubated for 3 h in 80 μl of ligand-solution under humidified atmosphere at 37° C. and 5% CO2. In addition 80 μl of a 5 μM forskolin solution (in Ham's F-12/DMEM (1/1; v/v)) was used as a positive control and 80 μl of Ham's F-12/DMEM (1/1; v/v) as a negative control. Each concentration and the controls were tested as triplicates.
After 3 h of stimulation, the solutions were removed and the cells were washed with 50 μl of Ham's F-12/DMEM (1/1; v/v) per well. After 10 min incubation in 30 μl of Ham's F-12/DMEM (1/1; v/v) at room temperature, 30 μl of luciferase-solution (ONE-Glo™ Luciferase Assay System) was added and the luminescence was directly measured using an Infinite M200 (Tecan).
Data analysis of the luminescence measurement was carried out with GraphPad Prism 5. Therefore the measured luminescence values of each plate were first corrected on the base of the respective average of forskolin stimulation. Afterwards they were normalized to [G^14]ADM(14-52) which was used as standard peptide in every assay. After correction and normalization data was analysed using non-linear regression giving dose-response curves for each tested ligand.
Background: Changes in cAMP serve as a functional read-out for many G protein-coupled receptors.

As a reminder, the EC50 is the concentration giving half of the maximal effect. A lower EC50 goes with a more potent agent. In the case of `CC[C@H](C)[C@H](NC(=O)[C@H](CCC(N)=O)NC(=O)[C@H](Cc1c[nH]cn1)NC(=O)[C@H](C)NC(=O)[C@H](CC(C)C)NC(=O)[C@H](CCCCN)NC(=O)[C@H](CCC(N)=O)NC(=O)[C@@H](NC(=O)[C@@H](NC(=O)[C@@H]1CCCNC(=O)C[C@H](NC(=O)CNC(=O)CN)C(=O)N[C@@H](CCCNC(=N)N)C(=O)N[C@@H](Cc2ccccc2)C(=O)NCC(=O)N[C@@H]([C@@H](C)O)C(=O)N1)[C@@H](C)O)C(C)C)C(=O)N[C@@H](Cc1ccc(O)cc1)C(=O)N[C@@H](CCC(N)=O)C(=O)N[C@@H](Cc1ccccc1)C(=O)N[C@H](C(=O)N[C@@H](CC(=O)O)C(=O)N[C@@H](CCCCN)C(=O)N[C@@H](CC(=O)O)C(=O)N[C@@H](CCCCN)C(=O)N[C@@H](CC(=O)O)C(=O)N[C@@H](CC(N)=O)C(=O)N[C@H](C(=O)N[C@@H](C)C(=O)N1CCC[C@H]1C(=O)N[C@@H](CCCNC(=N)N)C(=O)N[C@@H](CO)C(=O)N[C@@H](CCCCN)C(=O)N[C@H](C(=O)N[C@@H](CO)C(=O)N1CCC[C@H]1C(=O)N[C@@H](CCC(N)=O)C(=O)NCC(=O)N[C@@H](Cc1ccc(O)cc1)C(N)=O)[C@@H](C)CC)C(C)C)[C@@H](C)O` [Example 8, ((2S,5S,11S,14S,21S)-21-(2-(2-aminoacetamido)acetamido)-5-benzyl-2-(3-guanidinopropyl)-11-((R)-1-hydroxyethyl)-3,6,9,12,19,22-hexaoxo-1,4,7,10,13,18-hexaazacyclodocosane-14-carbonyl)-L-threonyl-ADM(22-52)] (H-GGDRFGT[Orn]TVQKLAHQIYQFTDKDKDNVAPRSKISPQGY-NH2; lactam 3-8), the response was half-maximal at 20 nM (EC50).

In the case of `CC[C@H](C)[C@H](NC(=O)[C@H](CCC(N)=O)NC(=O)[C@H](Cc1c[nH]cn1)NC(=O)[C@H](C)NC(=O)[C@H](CC(C)C)NC(=O)[C@H](CCCCN)NC(=O)[C@H](CCC(N)=O)NC(=O)[C@@H](NC(=O)[C@@H](NC(=O)[C@@H]1CCNC(=O)CC[C@H](NC(=O)CNC(=O)CN)C(=O)N[C@@H](CCCNC(=N)N)C(=O)N[C@@H](Cc2ccccc2)C(=O)NCC(=O)N[C@@H]([C@@H](C)O)C(=O)N1)[C@@H](C)O)C(C)C)C(=O)N[C@@H](Cc1ccc(O)cc1)C(=O)N[C@@H](CCC(N)=O)C(=O)N[C@@H](Cc1ccccc1)C(=O)N[C@H](C(=O)N[C@@H](CC(=O)O)C(=O)N[C@@H](CCCCN)C(=O)N[C@@H](CC(=O)O)C(=O)N[C@@H](CCCCN)C(=O)N[C@@H](CC(=O)O)C(=O)N[C@@H](CC(N)=O)C(=O)N[C@H](C(=O)N[C@@H](C)C(=O)N1CCC[C@H]1C(=O)N[C@@H](CCCNC(=N)N)C(=O)N[C@@H](CO)C(=O)N[C@@H](CCCCN)C(=O)N[C@H](C(=O)N[C@@H](CO)C(=O)N1CCC[C@H]1C(=O)N[C@@H](CCC(N)=O)C(=O)NCC(=O)N[C@@H](Cc1ccc(O)cc1)C(N)=O)[C@@H](C)CC)C(C)C)[C@@H](C)O` [Example 10, ((2S,5S,11S,14S,21S)-21-(2-(2-aminoacetamido)acetamido)-5-benzyl-2-(3-guanidinopropyl)-11-((R)-1-hydroxyethyl)-3,6,9,12,18,22-hexaoxo-1,4,7,10,13,17-hexaazacyclodocosane-14-carbonyl)-L-threonyl-ADM(22-52)] (H-GGERFGT[Dab]TVQKLAHQIYQFTDKDKDNVAPRSKISPQGY-NH2; lactam 3-8), the EC50 was 41 nM.

The compound `CC[C@H](C)[C@H](NC(=O)[C@H](CCC(N)=O)NC(=O)[C@H](Cc1c[nH]cn1)NC(=O)[C@H](C)NC(=O)[C@H](CC(C)C)NC(=O)[C@H](CCCCN)NC(=O)[C@H](CCC(N)=O)NC(=O)[C@@H](NC(=O)[C@@H](NC(=O)[C@@H]1CCC(=O)NCC[C@H](NC(=O)CNC(=O)CN)C(=O)N[C@@H](CCCNC(=N)N)C(=O)N[C@@H](Cc2ccccc2)C(=O)NCC(=O)N[C@@H]([C@@H](C)O)C(=O)N1)[C@@H](C)O)C(C)C)C(=O)N[C@@H](Cc1ccc(O)cc1)C(=O)N[C@@H](CCC(N)=O)C(=O)N[C@@H](Cc1ccccc1)C(=O)N[C@H](C(=O)N[C@@H](CC(=O)O)C(=O)N[C@@H](CCCCN)C(=O)N[C@@H](CC(=O)O)C(=O)N[C@@H](CCCCN)C(=O)N[C@@H](CC(=O)O)C(=O)N[C@@H](CC(N)=O)C(=O)N[C@H](C(=O)N[C@@H](C)C(=O)N1CCC[C@H]1C(=O)N[C@@H](CCCNC(=N)N)C(=O)N[C@@H](CO)C(=O)N[C@@H](CCCCN)C(=O)N[C@H](C(=O)N[C@@H](CO)C(=O)N1CCC[C@H]1C(=O)N[C@@H](CCC(N)=O)C(=O)NCC(=O)N[C@@H](Cc1ccc(O)cc1)C(N)=O)[C@@H](C)CC)C(C)C)[C@@H](C)O` [Example 11, ((2S,5S,11S,14S,21S)-21-(2-(2-aminoacetamido)acetamido)-5-benzyl-2-(3-guanidinopropyl)-11-((R)-1-hydroxyethyl)-3,6,9,12,17,22-hexaoxo-1,4,7,10,13,18-hexaazacyclodocosane-14-carbonyl)-L-threonyl-ADM(22-52)] (H-GG[Dab]RFGTETVQKLAHQIYQFTDKDKDNVAPRSKISPQGY-NH2; lactam 3-8) came in with a 50% effective concentration (EC50) of 84 nM.

`CCCCCCCCCCCCCCCC(=O)NCCCC[C@H](N)C(=O)NCC(=O)N[C@H]1CCC(=O)NCCCC[C@@H](C(=O)N[C@H](C(=O)N[C@H](C(=O)N[C@@H](CCC(N)=O)C(=O)N[C@@H](CCCCN)C(=O)N[C@@H](CC(C)C)C(=O)N[C@@H](C)C(=O)N[C@@H](Cc2c[nH]cn2)C(=O)N[C@@H](CCC(N)=O)C(=O)N[C@H](C(=O)N[C@@H](Cc2ccc(O)cc2)C(=O)N[C@@H](CCC(N)=O)C(=O)N[C@@H](Cc2ccccc2)C(=O)N[C@H](C(=O)N[C@@H](CC(=O)O)C(=O)N[C@@H](CCCCN)C(=O)N[C@@H](CC(=O)O)C(=O)N[C@@H](CCCCN)C(=O)N[C@@H](CC(=O)O)C(=O)N[C@@H](CC(N)=O)C(=O)N[C@H](C(=O)N[C@@H](C)C(=O)N2CCC[C@H]2C(=O)N[C@@H](CCCNC(=N)N)C(=O)N[C@@H](CO)C(=O)N[C@@H](CCCCN)C(=O)N[C@H](C(=O)N[C@@H](CO)C(=O)N2CCC[C@H]2C(=O)N[C@@H](CCC(N)=O)C(=O)NCC(=O)N[C@@H](Cc2ccc(O)cc2)C(N)=O)[C@@H](C)CC)C(C)C)[C@@H](C)O)[C@@H](C)CC)C(C)C)[C@@H](C)O)NC(=O)[C@H]([C@@H](C)O)NC(=O)CNC(=O)[C@H](Cc2ccccc2)NC(=O)[C@H](CCCNC(=N)N)NC1=O` [Example 12, ((2S,5S,11S,14S,23S)-23-(2-((S)-2-amino-6-palmitamidohexanamido)acetamido)-5-benzyl-2-(3-guanidinopropyl)-11-((R)-1-hydroxyethyl)-3,6,9,12,20,24-hexaoxo-1,4,7,10,13,19-hexaazacyclotetracosane-14-carbonyl)-L-threonyl-ADM(22-52)] (H-K(Palmitoyl)GERFGTKTVQKLAHQIYQFTDKDKDNVAPRSKISPQGY-NH2; lactam 3-8): the EC50 came out at 29 nM.
